Measured values published in patent US10499642B2, “Isoxazoline-substituted benzamides and analogues as insecticides” (SYNGENTA PARTICIPATIONS AG, priority 2015, dated 2019).
Where two headings read alike, the source gives them in different places.

Columns and labels:
Type in all cases: in vivo
Myzus persicae = Myzus persicae (green peach aphid) sunflower leaf disc test; conditions: foliar, 144 h
Description: Myzus persicae (Green Peach Aphid):
Sunflower leaf discs were placed on agar in a 24-well microtiter plate and sprayed with test solutions at an application rate of 200 ppm. After drying, the leaf discs were infested with an aphid population of mixed ages. After an incubation period of 6 days after treatment, samples were checked for mortality. The following compounds gave at least 80% mortality of Myzus persicae: […]

Diabrotica Balteata = assay: Diabrotica balteata (corn root worm) maize sprout test; conditions: 96 h, read-out: effect in at least one of the two categories (mortality or growth inhibition)
In short: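 Scoring covered both mortality and growth inhibition relative to untreated controls, 4 days post-infestation. Test solutions at 200 ppm, diluted in water from 10′000 ppm DMSO stocks, were sprayed onto agar-held maize sprouts, which after drying received 6 to 10 L2 larvae each well.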

Spodoptera littoralis = Spodoptera littoralis (Egyptian cotton leaf worm) cotton leaf disc test; conditions: foliar, 72 h, read-out: control (at least one of mortality, anti-feedant effect, and growth inhibition)
In short: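 Five first-instar larvae per disc were placed on dried, sprayed cotton leaf discs held on agar. Test solutions were aqueous, made from 10′000 ppm DMSO stocks. At day 3, control was counted when mortality, feeding deterrence or growth inhibition exceeded the untreated discs.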

Tetranychus urticae = Tetranychus urticae (two-spotted spider mite) bean leaf disc test; conditions: foliar, 192 h
Description: Tetranychus urticae (Two-Spotted Spider Mite):
Bean leaf discs on agar in 24-well microtiter plates were sprayed with aqueous test solutions prepared from 10′000 ppm DMSO stock solutions. After drying the leaf discs were infested with a mite population of mixed ages. The samples were assessed for mortality on mixed population (mobile stages) 8 days after infestation.

Thrips tabaci = Thrips tabaci (onion thrips) sunflower leaf disc test; conditions: foliar, 144 h
Description: Thrips tabaci (Onion Thrips):
Sunflower leaf discs were placed on agar in 24-well microtiter plates and sprayed with aqueous test solutions prepared from 10′000 ppm DMSO stock solutions. After drying the leaf discs were infested with a thrips population of mixed ages. The samples were assessed for mortality 6 days after infestation.

Plutella xylostella = Plutella xylostella (diamond back moth) artificial diet test; conditions: 120 h, read-out: effect in at least one of the two categories (mortality or growth inhibition)
In short: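 At a 200 ppm rate, test solutions were applied to artificial diet and allowed to dry before second-instar larvae were added. Five days later, larval mortality and growth inhibition were rated against untreated samples.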

Cc1cc(C2=NO[C@@](c3cc(Cl)c(Cl)c(Cl)c3)(C(F)(F)F)C2)ccc1C(=O)NC1CC(OCCC(C)C)=NO1 (stereo partly drawn) [Compound A106, N-(3-isopentyloxy-4,5-dihydroisoxazol-5-yl)-2-methyl-4-[(5S)-5-(3,4,5-trichlorophenyl)-5-(trifluoromethyl)-4H-isoxazol-3-yl]benzamide]
≥ 80%: mortality at 200 ppm (Myzus persicae) | percent effect (mortality or growth inhibition) at 200 ppm (Diabrotica Balteata) | percent control (mortality, anti-feedant effect or growth inhibition) at 200 ppm (Spodoptera littoralis) | mortality at 200 ppm (Tetranychus urticae) | mortality at 200 ppm (Thrips tabaci) | percent effect (mortality or growth inhibition) at 200 ppm (Plutella xylostella)

Cc1cc(C2=NO[C@@](c3cc(Cl)c(F)c(Cl)c3)(C(F)(F)F)C2)ccc1C(=O)NC1CC(C=O)=NO1 (stereo partly drawn) [Compound A099]
≥ 80%: mortality at 200 ppm (Myzus persicae) | percent effect (mortality or growth inhibition) at 200 ppm (Diabrotica Balteata) | percent control (mortality, anti-feedant effect or growth inhibition) at 200 ppm (Spodoptera littoralis) | mortality at 200 ppm (Tetranychus urticae) | mortality at 200 ppm (Thrips tabaci) | percent effect (mortality or growth inhibition) at 200 ppm (Plutella xylostella)

Cc1cc(C2=NO[C@@](c3cc(Cl)c(F)c(Cl)c3)(C(F)(F)F)C2)ccc1C(=O)NC1CC(N(C)C)=NO1 (stereo partly drawn) [Compound A105, 4-[(5S)-5-(3,5-dichloro-4-fluoro-phenyl)-5-(trifluoromethyl)-4H-isoxazol-3-yl]-N-[3-(dimethylamino)-4,5-dihydroisoxazol-5-yl]-2-methyl-benzamide]
≥ 80%: mortality at 200 ppm (Myzus persicae) | percent effect (mortality or growth inhibition) at 200 ppm (Diabrotica Balteata) | percent control (mortality, anti-feedant effect or growth inhibition) at 200 ppm (Spodoptera littoralis) | mortality at 200 ppm (Tetranychus urticae) | mortality at 200 ppm (Thrips tabaci) | percent effect (mortality or growth inhibition) at 200 ppm (Plutella xylostella)

Cc1cc(C2=NO[C@@](c3cc(Cl)c(Cl)c(Cl)c3)(C(F)(F)F)C2)ccc1C(=O)NC1CC(Br)=NO1 (stereo partly drawn) [Compound A125, N-(3-bromo-4,5-dihydroisoxazol-5-yl)-2-methyl-4-[(5S)-5-(3,4,5-trichlorophenyl)-5-(trifluoromethyl)-4H-isoxazol-3-yl]benzamide]
≥ 80%: mortality at 200 ppm (Myzus persicae) | percent effect (mortality or growth inhibition) at 200 ppm (Diabrotica Balteata) | percent control (mortality, anti-feedant effect or growth inhibition) at 200 ppm (Spodoptera littoralis) | mortality at 200 ppm (Tetranychus urticae) | mortality at 200 ppm (Thrips tabaci) | percent effect (mortality or growth inhibition) at 200 ppm (Plutella xylostella)

Cc1cc(C2=NO[C@@](c3cc(Cl)c(F)c(Cl)c3)(C(F)(F)F)C2)ccc1C(=O)NC1CC(COC=O)=NO1 (stereo partly drawn) [Compound A089]
≥ 80%: mortality at 200 ppm (Myzus persicae) | percent effect (mortality or growth inhibition) at 200 ppm (Diabrotica Balteata) | percent control (mortality, anti-feedant effect or growth inhibition) at 200 ppm (Spodoptera littoralis) | mortality at 200 ppm (Tetranychus urticae) | mortality at 200 ppm (Thrips tabaci) | percent effect (mortality or growth inhibition) at 200 ppm (Plutella xylostella)

CCC1=NOC(NC(=O)c2ccc(C3=NO[C@@](c4cc(Cl)cc(Cl)c4)(C(F)(F)F)C3)cc2C)C1 (stereo partly drawn) [Compound A137]
≥ 80%: mortality at 200 ppm (Myzus persicae) | percent effect (mortality or growth inhibition) at 200 ppm (Diabrotica Balteata) | percent control (mortality, anti-feedant effect or growth inhibition) at 200 ppm (Spodoptera littoralis) | mortality at 200 ppm (Tetranychus urticae) | mortality at 200 ppm (Thrips tabaci) | percent effect (mortality or growth inhibition) at 200 ppm (Plutella xylostella)

Cc1cc(C2=NO[C@@](c3cc(Cl)c(F)c(Cl)c3)(C(F)(F)F)C2)ccc1C(=O)NC1CC(OCC(C)C)=NO1 (stereo partly drawn) [Compound A073]
≥ 80%: mortality at 200 ppm (Myzus persicae) | percent effect (mortality or growth inhibition) at 200 ppm (Diabrotica Balteata) | percent control (mortality, anti-feedant effect or growth inhibition) at 200 ppm (Spodoptera littoralis) | mortality at 200 ppm (Tetranychus urticae) | mortality at 200 ppm (Thrips tabaci) | percent effect (mortality or growth inhibition) at 200 ppm (Plutella xylostella)

CCC1=NOC(N(C=O)C(=O)c2ccc(C3=NO[C@@](c4cc(Cl)c(F)c(Cl)c4)(C(F)(F)F)C3)cc2C)C1 (stereo partly drawn) [Compound A022, 4-[(5S)-5-(3,5-dichloro-4-fluoro-phenyl)-5-(trifluoromethyl)-4H-isoxazol-3-yl]-N-(3-ethyl-4,5-dihydroisoxazol-5-yl)-N-formyl-2-methyl-benzamide]
≥ 80%: mortality at 200 ppm (Myzus persicae) | percent effect (mortality or growth inhibition) at 200 ppm (Diabrotica Balteata) | percent control (mortality, anti-feedant effect or growth inhibition) at 200 ppm (Spodoptera littoralis) | mortality at 200 ppm (Tetranychus urticae) | mortality at 200 ppm (Thrips tabaci) | percent effect (mortality or growth inhibition) at 200 ppm (Plutella xylostella)

Cc1cc(C2=NO[C@@](c3cc(Cl)c(F)c(Cl)c3)(C(F)(F)F)C2)ccc1C(=O)N(C=O)C1CC(Br)=NO1 (stereo partly drawn) [Compound A002, N-(3-bromo-4,5-dihydroisoxazol-5-yl)-4-[(5S)-5-(3,5-dichloro-4-fluoro-phenyl)-5-(trifluoromethyl)-4H-isoxazol-3-yl]-N-formyl-2-methyl-benzamide]
≥ 80%: mortality at 200 ppm (Myzus persicae) | percent effect (mortality or growth inhibition) at 200 ppm (Diabrotica Balteata) | percent control (mortality, anti-feedant effect or growth inhibition) at 200 ppm (Spodoptera littoralis) | mortality at 200 ppm (Tetranychus urticae) | mortality at 200 ppm (Thrips tabaci) | percent effect (mortality or growth inhibition) at 200 ppm (Plutella xylostella)

Cc1cc(C2=NO[C@@](c3cc(Cl)c(F)c(Cl)c3)(C(F)(F)F)C2)ccc1C(=O)NC1CC(CO)=NO1 (stereo partly drawn) [Compound A087, 4-[(5S)-5-(3,5-dichloro-4-fluoro-phenyl)-5-(trifluoromethyl)-4H-isoxazol-3-yl]-N-[3-(hydroxymethyl)-4,5-dihydroisoxazol-5-yl]-2-methyl-benzamide]
≥ 80%: mortality at 200 ppm (Myzus persicae) | percent effect (mortality or growth inhibition) at 200 ppm (Diabrotica Balteata) | percent control (mortality, anti-feedant effect or growth inhibition) at 200 ppm (Spodoptera littoralis) | mortality at 200 ppm (Tetranychus urticae) | mortality at 200 ppm (Thrips tabaci) | percent effect (mortality or growth inhibition) at 200 ppm (Plutella xylostella)

Cc1cc(C2=NO[C@@](c3cc(Cl)cc(C(F)(F)F)c3)(C(F)(F)F)C2)ccc1C(=O)NC1CC(Cl)=NO1 (stereo partly drawn) [Compound A016, N-(3-chloro-4,5-dihydroisoxazol-5-yl)-4-[(5S)-5-[3-chloro-5-(trifluoromethyl)phenyl]-5-(trifluoromethyl)-4H-isoxazol-3-yl]-2-methyl-benzamide]
≥ 80%: mortality at 200 ppm (Myzus persicae) | percent effect (mortality or growth inhibition) at 200 ppm (Diabrotica Balteata) | percent control (mortality, anti-feedant effect or growth inhibition) at 200 ppm (Spodoptera littoralis) | mortality at 200 ppm (Tetranychus urticae) | mortality at 200 ppm (Thrips tabaci) | percent effect (mortality or growth inhibition) at 200 ppm (Plutella xylostella)

Cc1cc(C2=NO[C@@](c3cc(Cl)c(F)c(Cl)c3)(C(F)(F)F)C2)ccc1C(=O)NC1CC(OC/C=C/C(F)(F)F)=NO1 (stereo partly drawn) [Compound A084, 4-[(5S)-5-(3,5-dichloro-4-fluoro-phenyl)-5-(trifluoromethyl)-4H-isoxazol-3-yl]-2-methyl-N-[3-[(E)-4,4,4-trifluorobut-2-enoxy]-4,5-dihydroisoxazol-5-yl]benzamide]
≥ 80%: mortality at 200 ppm (Myzus persicae) | percent effect (mortality or growth inhibition) at 200 ppm (Diabrotica Balteata) | percent control (mortality, anti-feedant effect or growth inhibition) at 200 ppm (Spodoptera littoralis) | mortality at 200 ppm (Tetranychus urticae) | mortality at 200 ppm (Thrips tabaci) | percent effect (mortality or growth inhibition) at 200 ppm (Plutella xylostella)

Cc1cc(C2=NO[C@@](c3cc(Cl)c(F)c(Cl)c3)(C(F)(F)F)C2)ccc1C(=O)NC1CC(Cl)=NO1 (stereo partly drawn) [Compound A003, N-(3-chloro-4,5-dihydroisoxazol-5-yl)-4-[(5S)-5-(3,5-dichloro-4-fluoro-phenyl)-5-(trifluoromethyl)-4H-isoxazol-3-yl]-2-methyl-benzamide]
≥ 80%: mortality at 200 ppm (Myzus persicae) | percent effect (mortality or growth inhibition) at 200 ppm (Diabrotica Balteata) | percent control (mortality, anti-feedant effect or growth inhibition) at 200 ppm (Spodoptera littoralis) | mortality at 200 ppm (Tetranychus urticae) | mortality at 200 ppm (Thrips tabaci) | percent effect (mortality or growth inhibition) at 200 ppm (Plutella xylostella)

COC1=NOC(NC(=O)c2ccc(C3=NO[C@@](c4cc(Br)cc(C(F)(F)F)c4)(C(F)(F)F)C3)cc2C)C1 (stereo partly drawn) [Compound A044]
≥ 80%: mortality at 200 ppm (Myzus persicae; application rate 200 ppm, sunflower leaf discs, population of mixed ages, 6 days after treatment, read-out: mortality) | percent effect (mortality or growth inhibition) at 200 ppm (Diabrotica Balteata; application rate 200 ppm, maize sprouts, L2 larvae, 4 days after infestation) | percent control (mortality, anti-feedant effect or growth inhibition) at 200 ppm (Spodoptera littoralis; application rate 200 ppm, cotton leaf discs, L1 larvae, 3 days after infestation) | mortality at 200 ppm (Tetranychus urticae; application rate 200 ppm, bean leaf discs, mixed population (mobile stages), 8 days after infestation, read-out: mortality) | mortality at 200 ppm (Thrips tabaci; application rate 200 ppm, sunflower leaf discs, population of mixed ages, 6 days after infestation, read-out: mortality) | percent effect (mortality or growth inhibition) at 200 ppm (Plutella xylostella; application rate 200 ppm, artificial diet, L2 larvae, 5 days after infestation)

Cc1cc(C2=NO[C@@](c3cc(Cl)cc(Cl)c3)(C(F)(F)F)C2)ccc1C(=O)NC1CC(C(F)(F)F)=NO1 (stereo partly drawn) [Compound A136, 4-[(5S)-5-(3,5-dichlorophenyl)-5-(trifluoromethyl)-4H-isoxazol-3-yl]-2-methyl-N-[3-(trifluoromethyl)-4,5-dihydroisoxazol-5-yl]benzamide]
≥ 80%: mortality at 200 ppm (Myzus persicae) | percent effect (mortality or growth inhibition) at 200 ppm (Diabrotica Balteata) | percent control (mortality, anti-feedant effect or growth inhibition) at 200 ppm (Spodoptera littoralis) | mortality at 200 ppm (Tetranychus urticae) | mortality at 200 ppm (Thrips tabaci) | percent effect (mortality or growth inhibition) at 200 ppm (Plutella xylostella)
